{"source": "patent US6410249B1", "about": "“Odorant receptors” (priority 1999, dated 2002)", "key": {"receptor 5.24": {"target": "T1, receptor 5.24 (Carassius auratus, UniProt Q9PW88)", "T1 construct": "The receptor 5.24 full length cDNA detects 1-2 bands in genomic DNA blots; expressed in transfected cells; host or cells: HEK 293 cells expressing SV40 large T antigen (293-TSA)", "T1 sequence (Q9PW88 25-877)": "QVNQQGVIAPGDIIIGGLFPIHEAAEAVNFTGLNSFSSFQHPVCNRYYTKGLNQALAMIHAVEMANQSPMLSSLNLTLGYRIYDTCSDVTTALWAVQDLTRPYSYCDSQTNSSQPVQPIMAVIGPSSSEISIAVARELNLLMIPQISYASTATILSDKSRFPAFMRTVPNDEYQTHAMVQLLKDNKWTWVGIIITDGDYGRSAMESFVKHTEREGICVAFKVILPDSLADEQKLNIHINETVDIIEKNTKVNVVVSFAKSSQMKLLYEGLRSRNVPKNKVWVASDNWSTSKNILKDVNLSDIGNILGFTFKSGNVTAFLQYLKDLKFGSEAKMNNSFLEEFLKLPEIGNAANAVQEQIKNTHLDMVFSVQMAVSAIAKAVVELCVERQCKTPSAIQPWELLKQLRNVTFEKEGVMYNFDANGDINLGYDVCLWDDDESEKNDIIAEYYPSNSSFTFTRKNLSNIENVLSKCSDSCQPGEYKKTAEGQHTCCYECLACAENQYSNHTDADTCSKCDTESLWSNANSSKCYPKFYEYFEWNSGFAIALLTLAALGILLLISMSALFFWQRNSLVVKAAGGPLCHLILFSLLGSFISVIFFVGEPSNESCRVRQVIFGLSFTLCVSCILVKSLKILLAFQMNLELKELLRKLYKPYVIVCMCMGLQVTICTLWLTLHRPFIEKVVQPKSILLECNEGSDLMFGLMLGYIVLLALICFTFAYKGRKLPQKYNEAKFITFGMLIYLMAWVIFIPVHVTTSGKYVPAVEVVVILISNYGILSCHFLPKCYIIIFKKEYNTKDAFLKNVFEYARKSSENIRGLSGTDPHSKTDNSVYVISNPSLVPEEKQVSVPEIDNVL", "assay": "3H-L-arginine saturation binding to membranes of receptor 5.24-expressing HEK 293 cells", "set-up": "species or system goldfish", "excerpt": "High-Affinity Binding of Radiolabeled L-Arginine to the Cloned Goldfish Odorant Receptor. To determine the affinity of the cloned goldfish amino acid receptor for basic amino acids, we characterized the ligand-receptor interaction by radiolabeled ligand binding to receptors expressed in mammalian cells. Human embryonic kidney (HEK) 293 cells were transfected with expression plasmids containing the receptor 5.24 cDNA insert. […] We next wished to determine what second messenger pathway receptor 5.24 couples to in HEK 293 cells. Control cells or cells expressing receptor 5.24 were exposed to varying concentrations of arginine and assayed for the accumulation of IP3 and cAMP.\nMammalian Cell Culture and DNA Transfections. For cell transfections, the receptor 5.24 cDNA insert was subcloned into two expression vectors: CMVI, which utilizes a human cytomegalovirus (CMV) immediate early promoter-enhancer plus the CMV intron A sequence to drive expression, and 608RX-2.2L, which is similar to CMVI except the cDNA insert is followed by an internal ribosome entry site (IRES)—enhanced green fluorescent protein (EGFP) coding sequence; 608RX-2.2L also contains a puromycin resistance gene. For transient assays, HEK 293 cells expressing the SV40 large T antigen (293 TSA cells) were transfected with the CMVI-receptor 5.24 or CMVI control plasmid using lipofectamine (Life Technologies) and harvested at 48 hours for membrane preparations. For stable cell lines, 293-TSA cells were transfected with the 608RX-2.2L-receptor 5.24 plasmid or a control 608RX-2.2L plasmid and selected in puromycin. Colonies showing high levels of EGFP fluorescence (as judged by epifluorescence microscopy) were picked, expanded, and screened for 3H-L-arginine binding (see below). In five independent receptor 5.24-transfected stable cell lines, receptor densities (Rt) varied between 0.5 and 6.0 pmol L-arginine binding sites/mg membrane protein. […] All competition binding assays and signal transduction studies were performed using the stable cell line 5.24-20 (Rt=2.0 pmol /mg) and a control cell line (2.2-9) stably transfected with vector alone (Rt=0.03 pmol/mg).\nMembrane Preparations and Ligand Binding Assays. Membranes for ligand binding assays were prepared by washing confluent cells three times with phosphate buffered saline (PBS), detaching cells with a PBS-based enzyme-free dissociation solution, and resuspending cells in ice-cold 5.0 mM Hepes, pH 7.4, 1.0 mM EDTA, 1.0 μg/ml leupeptin, 0.5 mM PMSF. All subsequent manipulations were performed on ice. After a 30 min incubation, the cell suspension was homogenized and centrifuged at 100,000×g for 30 min. Cell membrane pellets were washed twice by resuspension and centrifugation in binding buffer (20 mM Hepes, pH 7.4, 1.0 mM EDTA, 2.0 mM MgCl2, 1.0 μg/ml leupeptin, 0.5 mM PMSF), resuspended in binding buffer, and frozen at −80° C.\nSaturation binding assays were performed using 20-25 μg of membrane protein in a final volume of 100 μl binding buffer and increasing concentrations of [2,3-3H] L-arginine (specific activity=40 Ci/mmol; Dupont NEN). Non-specific binding was measured in the presence of 500 μM unlabeled L-arginine. Competition assays were performed with 500 nM [2,3-3H] […] Filters were washed three times with 4.0 ml ice cold 20 mM Hepes, pH 7.4, and retained radioactivity was measured by scintillation counting. […] Data were analyzed by nonlinear curve fitting using Origin software (Microcal). […]"}, "[1]": {"system": "goldfish olfactory system", "details": "cited from earlier work"}, "[2]": {"system": "goldfish olfactory neurons", "assay": "multi-unit recordings from the goldfish olfactory epithelium", "format": "cell-based", "details": "100 μM"}}, "note": "Read-outs that look alike come from different tables or passages of the source.", "data": [{"smiles": "N=C(N)NCCC[C@H](N)C(=O)O", "note": "[L-Arginine]", "values": [{"measurement": "Kd", "setting": "receptor 5.24; mean±SEM, n=4, read-out: dissociation constant (Kd)", "value": "0.121 ± 0.033", "unit": "µM"}, {"measurement": "Hill coefficient", "setting": "receptor 5.24; mean±SEM, n=4 determinations", "value": "0.95±0.07"}, {"measurement": "Kd", "setting": "receptor 5.24; range of n=4 determinations, read-out: dissociation constant (Kd), range", "value": "0.052 to 0.207", "unit": "µM"}, {"measurement": "Kd", "setting": "receptor 5.24; summary statement, read-out: Kd (high affinity interaction)", "value": "~0.1", "unit": "µM"}, {"measurement": "in vivo threshold sensitivity", "setting": "[1]", "value": "ca. 1 nM"}, {"measurement": "locations with spontaneous activity that responded", "setting": "[2]", "value": "25 out of 28"}]}]}
